Assay results as given in patent publication US11312724B2 (ASCENTAGE PHARMA (SUZHOU) CO., LTD., priority 2021, dated 2022).

Tests used:
[1] = tested on: MIA PaCa-2 cell; test: Cell proliferation assay (Celltiter-Glo), MIA PaCa-2; assay type: cell-based; settings: Homo sapiens, MIA PaCa-2, 72 h, 3 days
Experimental: (§1) Cell Proliferation Assay:
(§2) NCI-H358 cell and MIA PaCa-2 cell was cultured in RPMI-1640 supplemented with 10% FBS in humidified incubator at 37° C., 5% CO2. To asses the effect of Compounds of the Disclosure on cell proliferation, exponentially growing cells (5000 cells/well) were plated onto 96-well plates. After cell seeding, a representative Compounds of the Disclosure were added to the cell media (in concentrations ranging from 0 to 10 μM, 3/dilution series). After 3 days, 30 μL Celltiter-Glo reagent was added, and the luminescent signal was determined according to supplier's instruction. The dose response curves and IC50 values were generated using Prism.

[2] = tested on: NCI-H358 cell; test: Cell proliferation assay (Celltiter-Glo), NCI-H358; assay type: cell-based; settings: Homo sapiens, NCI-H358, 72 h, 3 days
Experimental: as §1, §2

Row | SMILES | IC50 [1] | IC50 [2]
1 | C=C(F)C(=O)N1CCN(c2nc(OC[C@@H]3CCCN3C)nc3c2CCC2(COCc4cccc(F)c42)C3)C[C@@H]1CC#N (stereo partly shown) | 810 nM | 660 nM
2 | C=CC(=O)N1CCN(c2nc(OC[C@@H]3CCCN3C)nc3c2CC[C@]2(CCCc4ccccc42)C3)C[C@@H]1CC#N (single isomer, unassigned) [Cpd. No. 1] | 3.6 nM | 16 nM
3 | C=CC(=O)N1CCN(c2nc(OC[C@@H]3CCCN3C)nc3c2CC[C@@]2(CCCc4ccccc42)C3)C[C@@H]1CC#N (single isomer, unassigned) [Cpd. No. 2] | 76 nM | 440 nM
4 | C=CC(=O)N1CCN(c2nc(OCC3CCCN3C)nc3c2CC[C@]2(CCc4ccccc42)C3)C[C@@H]1CC#N (single isomer, unassigned) [Cpd. No. 4] | 5 nM | 13 nM
5 | C=CC(=O)N1CCN(c2nc(OCC3CCCN3C)nc3c2CC[C@@]2(CCc4ccccc42)C3)C[C@@H]1CC#N (single isomer, unassigned) [Cpd. No. 5] | 400 nM | 520 nM
6 | C=CC(=O)N1CCN(c2nc(OC[C@@H]3[C@@H]4C[C@@H]4CN3C)nc3c2CC[C@@]2(CCc4c(Cl)cccc42)C3)C[C@@H]1CC#N (single isomer, unassigned) [Cpd. No. 47] | 4.9 nM | 15 nM
7 | C=CC(=O)N1CCN(c2nc(OC[C@@H]3[C@H]4C[C@H]4CN3C)nc3c2CC[C@@]2(CCc4c(Cl)cccc42)C3)C[C@@H]1CC#N (single isomer, unassigned) [Cpd. No. 48] | 4.3 nM | 6 nM
8 | C=CC(=O)N1CCN(c2nc(OC[C@@H]3CCCN3C)nc3c2CCC2(CCCc4ccccc42)C3)C[C@H]1CC#N (stereo partly drawn) [Cpd. No. 3, 2-((2R)-1-acryloyl-4-(2′-(((S)-1-methylpyrrolidin-2-yl)methoxy)-3,4,5′,8′-tetrahydro-2H,6′H-spiro[naphthalene-1,7′-quinazolin]-4′-yl)piperazin-2-yl)acetonitrile] | 140 nM | 290 nM
9 | C=CC(=O)N1CCN(c2nc(OC[C@@H]3CCCN3C)nc3c2CCC2(C3)OCCc3ccccc32)C[C@@H]1CC#N (stereo partly drawn) [Cpd. No. 6, 2-((2S)-1-acryloyl-4-(2′-(((S)-1-methylpyrrolidin-2-yl)methoxy)-5′,8′-dihydro-6′H-spiro[isochromane-1,7′-quinazolin]-4′-yl)piperazin-2-yl)acetonitrile] | 170 nM | 210 nM
10 | C=CC(=O)N1CCN(c2nc(OC[C@@H]3CCCN3C)nc3c2CCC2(CCCc4ccccc42)C3)CC1 (stereo partly drawn) [Cpd. No. 7, 1-(4-(2′-(((S)-1-methylpyrrolidin-2-yl)methoxy)-3,4,5′,8′-tetrahydro-2H,6′H-spiro[naphthalene-1,7′-quinazolin]-4′-yl)piperazin-1-yl)prop-2-en-1-one] | 850 nM | 1390 nM
11 | C=CC(=O)N1CCN(c2nc(OC[C@@H]3CCCN3C)nc3c2CCC2(CCCc4ccccc42)C3)[C@@H](C)C1 (stereo partly drawn) [Cpd. No. 8, 1-((3S)-3-methyl-4-(2′-(((S)-1-methylpyrrolidin-2-yl)methoxy)-3,4,5′,8′-tetrahydro-2H,6′H-spiro[naphthalene-1,7′-quinazolin]-4′-yl)piperazin-1-yl)prop-2-en-1-one] | 500 nM | 940 nM
12 | C=CC(=O)N1CCN(c2nc(OC[C@@H]3CCCN3C)nc3c2CCC2(CCc4ccccc42)C3)CC1 (stereo partly drawn) [Cpd. No. 9, 1-(4-(2′-(((S)-1-methylpyrrolidin-2-yl)methoxy)-2,3,5′,8′-tetrahydro-6′H-spiro[indene-1,7′-quinazolin]-4′-yl)piperazin-1-yl)prop-2-en-1-one] | 1730 nM | 3270 nM
13 | C=CC(=O)N1CCN(c2nc(OC[C@@H]3CCCN3C)nc3c2CCC2(CCc4ccccc42)C3)[C@@H](C)C1 (stereo partly drawn) [Cpd. No. 10, 1-((3S)-3-methyl-4-(2′-(((S)-1-methylpyrrolidin-2-yl)methoxy)-2,3,5′,8′-tetrahydro-6′H-spiro[indene-1,7′-quinazolin]-4′-yl)piperazin-1-yl)prop-2-en-1-one] | 1180 nM | 2230 nM
14 | C=CC(=O)N1CCN(c2nc(OC[C@@H]3CCCN3C)nc3c2CCC2(CCCc4ccc(F)cc42)C3)C[C@@H]1CC#N (stereo partly drawn) [Cpd. No. 11, 2-((2S)-1-acryloyl-4-(7-fluoro-2′-(((S)-1-methylpyrrolidin-2-yl)methoxy)-3,4,5′,8′-tetrahydro-2H,6′H-spiro[naphthalene-1,7′-quinazolin]-4′-yl)piperazin-2-yl)acetonitrile] | 110 nM | 200 nM
15 | C=CC(=O)N1CCN(c2nc(OC[C@@H]3CCCN3C)nc3c2CCC2(CCc4ccc(C)cc42)C3)C[C@@H]1CC#N (stereo partly drawn) [Cpd. No. 12, 2-((2S)-1-acryloyl-4-(6-methyl-2′-(((S)-1-methylpyrrolidin-2-yl)methoxy)-2,3,5′,8′-tetrahydro-6′H-spiro[indene-1,7′-quinazolin]-4′-yl)piperazin-2-yl)acetonitrile] | 55 nM | 65 nM
16 | C=C(F)C(=O)N1CCN(c2nc(OC[C@@H]3CCCN3C)nc3c2CCC2(CCCc4ccccc42)C3)C[C@@H]1CC#N (stereo partly drawn) [Cpd. No. 13, 2-((2S)-1-(2-fluoroacryloyl)-4-(2′-(((S)-1-methylpyrrolidin-2-yl)methoxy)-3,4,5′,8′-tetrahydro-2H,6′H-spiro[naphthalene-1,7′-quinazolin]-4′-yl)piperazin-2-yl)acetonitrile] | 220 nM | 290 nM
17 | C/C=C/C(=O)N1CCN(c2nc(OC[C@@H]3CCCN3C)nc3c2CCC2(CCCc4ccccc42)C3)C[C@@H]1CC#N (stereo partly drawn) [Cpd. No. 14, 2-((2S)-1-((E)-but-2-enoyl)-4-(2′-(((S)-1-methylpyrrolidin-2-yl)methoxy)-3,4,5′,8′-tetrahydro-2H,6′H-spiro[naphthalene-1,7′-quinazolin]-4′-yl)piperazin-2-yl)acetonitrile] | 1670 nM | 1670 nM
18 | CN(C)C/C=C/C(=O)N1CCN(c2nc(OC[C@@H]3CCCN3C)nc3c2CCC2(CCCc4ccccc42)C3)C[C@@H]1CC#N (stereo partly drawn) [Cpd. No. 15, 2-((2S)-1-((E)-4-(dimethylamino)but-2-enoyl)-4-(2′-(((S)-1-methylpyrrolidin-2-yl)methoxy)-3,4,5′,8′-tetrahydro-2H,6′H-spiro[naphthalene-1,7′-quinazolin]-4′-yl)piperazin-2-yl)acetonitrile] | 290 nM | 510 nM
19 | C=CS(=O)(=O)N1CCN(c2nc(OC[C@@H]3CCCN3C)nc3c2CCC2(CCCc4ccccc42)C3)C[C@@H]1CC#N (stereo partly drawn) [Cpd. No. 16, 2-((2S)-4-(2′-(((S)-1-methylpyrrolidin-2-yl)methoxy)-3,4,5′,8′-tetrahydro-2H,6′H-spiro[naphthalene-1,7′-quinazolin]-4′-yl)-1-(vinylsulfonyl)piperazin-2-yl)acetonitrile] | 2960 nM | 1900 nM
20 | C=CC(=O)N1CCN(c2nc(OCCCN(C)C)nc3c2CCC2(CCCc4ccccc42)C3)C[C@@H]1CC#N (stereo partly drawn) [Cpd. No. 17, 2-((2S)-1-acryloyl-4-(2′-(3-(dimethylamino)propoxy)-3,4,5′,8′-tetrahydro-2H,6′H-spiro[naphthalene-1,7′-quinazolin]-4′-yl)piperazin-2-yl)acetonitrile] | 54 nM | 100 nM
